According to ChEMBL document CHEMBL4732067, “Synthesis and evaluation of new compounds bearing 3-(4-aminopiperidin-1-yl)methyl magnolol scaffold as anticancer agents for the treatment of non-small cell lung cancer via targeting autophagy” (Eur J Med Chem, 2021):
The source made the active and inactive calls. The calls are words filed in the database; no cut-off is given here.

Key:
NCI-H460 [1] = assay: Induction of cell cycle arrest in human NCI-H460 cells assessed as accumulation at G0/G1 phase at 5 uM incubated for 24 hrs by propidium iodide staining based flow cytometry (reference value: 53.97 %); assay type: functional
NCI-H460 [2] = assay: Induction of cell cycle arrest in human NCI-H460 cells assessed as accumulation at S phase at 1 uM incubated for 24 hrs by propidium iodide staining based flow cytometry (reference value: 29.32 %); assay type: functional
NCI-H441 = assay: Antiproliferative activity against human NCI-H441 cells […] assessed as reduction in cell viability after 72 hrs by MTT assay; assay type: functional, cell-based; details: NCI-H441, 72 h
[3] = Toxicity in nude BALB/c mouse xenografted with C26 cells assessed as change in body weight at 50 mg/kg, po administered once daily and measured every two days; assay type: organism-based; details: in vivo
[4] = Antiproliferative activity against human SPCA1 cells expressing wild type EGFR assessed as reduction in cell viability after 72 hrs by MTT assay; assay type: functional, cell-based; details: SPCA1, 72 h
NCI-H460 [5] = assay: Induction of apoptosis in human NCI-H460 cells assessed as late apoptotic cells at 5 uM after 48 hrs by Annexin V-FITC/propidium iodide staining based flow cytometric analysis (reference value: 3.995 %); assay type: functional
[6] = Antitumor activity against mouse C26 cells xenografted in BALB/c mouse assessed as tumor growth inhibition at 50 mg/kg, po administered once daily and measured every two days by caliper method relative to control; assay type: functional; details: 48 h, read-out: TGI
NCI-H1975 = assay: Antiproliferative activity against human NCI-H1975 cells assessed as reduction in cell viability after 72 hrs by MTT assay; assay type: functional, cell-based; details: NCI-H1975, 72 h
NCI-H460 [7] = assay: Induction of apoptosis in human NCI-H460 cells assessed as increase in cleaved caspase 3 expression level after 48 hrs by Western blot analysis; assay type: functional, cell-based; details: dose 0.5-10 µM
NCI-H460 [8] = assay: Induction of apoptosis in human NCI-H460 cells assessed as necrotic cells at 10 uM after 48 hrs by Annexin V-FITC/propidium iodide staining based flow cytometric analysis (reference value: 0.498 %); assay type: functional
NCI-H460 [9] = assay: Antitumor activity against human NCI-H460 cells xenografted in nude BABL/c mouse assessed as upregulation of LC3-II expression in tumor tissue at 20 mg/kg, po administered once daily in presence of chloroquine diphosphate by Western blot analysis; assay type: functional, organism-based
NCI-H460 [10] = assay: Induction of apoptosis in human NCI-H460 cells assessed as necrotic cells at 2 uM after 48 hrs by Annexin V-FITC/propidium iodide staining based flow cytometric analysis (reference value: 0.498 %); assay type: functional
NCI-H460 [11] = assay: Induction of autophagy-induced cell death in human H460 cells at 0.04 to 5 uM after 24 hrs in presence of chloroquine diphosphate by MTT assay; assay type: functional, cell-based; details: dose 0.04-5 µM
NCI-H460 [12] = assay: Induction of apoptosis in human NCI-H460 cells assessed as early apoptotic cells at 1 uM after 48 hrs by Annexin V-FITC/propidium iodide staining based flow cytometric analysis (reference value: 3.980 %); assay type: functional
[13] = Metabolic stability in human liver microsomes assessed as half life; assay type: ADME, Microsome
NCI-H460 [14] = assay: Induction of apoptosis in human NCI-H460 cells assessed as necrotic cells at 1 uM after 48 hrs by Annexin V-FITC/propidium iodide staining based flow cytometric analysis (reference value: 0.498 %); assay type: functional

- IC50 (NCI-H441): 940 nM
- IC50 (NCI-H1975): 930 nM
- half-life [13]: 2.62 h
Structure (SMILES): C=CCc1ccc(OC(C)C)c(-c2cc(CC=C)cc(CN3CCC(N)CC3)c2O)c1
- Activity (NCI-H460 [1]): 59.89%
- Activity (NCI-H460 [2]): 23.89%
- Activity [3]: Toxic
- IC50 [4]: 1080 nM
- Activity (NCI-H460 [5]): 15.76%
- inhibition in vivo at 50 mg/kg [6]: 65.4%
- Activity (NCI-H460 [7]): Dose-dependent effect
- Activity (NCI-H460 [8]): 1.58%
- Activity (NCI-H460 [9]): Active
- Activity (NCI-H460 [10]): 0.874%
- Activity (NCI-H460 [11]): Active
- Activity (NCI-H460 [12]): 4.467%
- Activity (NCI-H460 [14]): 0.394%
